Data on five compounds can be found in ChEMBL document CHEMBL6127023, “3-Tetrazolyl-β-carboline derivatives as potential neuroprotective agents” (Bioorg Med Chem, 2024).

Series [1] relates to SH-SY5Y. The experiment in a line: Cytotoxicity against human SH-SY5Y cells assessed as decrease in resazurin dye at 50 uM incubated for 24 hrs relative to control. Also noted: scale not given: the % may be the effect or the level left. The series is classed as toxicity, cell-based. (Alamar Blue is a resazurin reagent that responds to reducing activity.)
For series [2], the system named is SH-SY5Y. The series can be described thus: Cytotoxicity against human SH-SY5Y cells upto 10 uM incubated for 24 hrs. The series is classed as toxicity, cell-based.
For series [3], the system named is SH-SY5Y. The series can be described thus: Neuroprotective effect in MPP+-induced cytotoxicity in human SH-SY5Y cells assessed as increase in neutral red dye uptake at 1 to 10 uM preincubated with 500 uM MPP+ for 30 mins followed by compound treatment for 24 hrs. It is filed as functional, cell-based. The settings on record: dose 1-10 µM, time 24.5 hrs.
In series [4] the test system is SH-SY5Y. The experiment in a line: Cytotoxicity against human SH-SY5Y cells assessed as decrease in neutral red dye uptake upto 50 uM incubated for 24 hrs. The series is classed as toxicity, cell-based.
Series [5] deals with SH-SY5Y. The experiment in a line: Cytotoxicity against human SH-SY5Y cells assessed as decrease in resazurin dye at 25 uM incubated for 24 hrs relative to control. It is filed as toxicity, cell-based. On the set-up: scale not given: the % may be the effect or the level left.
Series [6] relates to SH-SY5Y. The experiment in a line: Neuroprotective effect in MPP+-induced cytotoxicity in human SH-SY5Y cells assessed as increase in neutral red dye uptake at 5 uM preincubated with 1000 uM MPP+ for 30 mins followed by compound treatment for 24 hrs (reference value: 76.2 %). It is filed as functional. As to conditions: time 24.5 hrs.
For series [7], the system named is SH-SY5Y. The series can be described thus: Cytotoxicity against human SH-SY5Y cells assessed as decrease in neutral red dye uptake at 50 uM incubated for 24 hrs relative to control. The series is classed as toxicity, cell-based. On the set-up: scale not given: the % may be the effect or the level left.
Series [8] relates to SH-SY5Y. The series can be described thus: Cytotoxicity against human SH-SY5Y cells at 5 uM incubated for 24 hrs. The series is classed as toxicity, cell-based.
Series [9] deals with SH-SY5Y. The experiment in a line: Neuroprotective effect in MPP+-induced cytotoxicity in human SH-SY5Y cells assessed as increase in neutral red dye uptake at 2.5 uM preincubated with 1000 uM MPP+ for 30 mins followed by compound treatment for 24 hrs (reference value: 76.2 %). It is filed as functional. The settings on record: time 24.5 hrs.
Series [10] concerns SH-SY5Y. The experiment in a line: Cytotoxicity against human SH-SY5Y cells assessed as decrease in neutral red dye uptake at 10 uM incubated for 24 hrs relative to control. On the set-up: scale not given: the % may be the effect or the level left. The series is classed as toxicity, cell-based.
Series [11] deals with SH-SY5Y. The series can be described thus: Induction of ROS production in human SH-SY5Y cells at 50 uM incubated for 24 hrs by DCFH-DA probe based analysis relative to control. It is filed as functional.
In series [12] the test system is SH-SY5Y. The experiment in a line: Neuroprotective effect in MPP+-induced cytotoxicity in human SH-SY5Y cells assessed as increase in neutral red dye uptake at 2.5 uM preincubated with 500 uM MPP+ for 30 mins followed by compound treatment for 24 hrs (reference value: 83.9 %). As to conditions: time 24.5 hrs. It is filed as functional.
The test system of series [13] is SH-SY5Y. The series can be described thus: Neuroprotective effect in MPP+-induced cytotoxicity in human SH-SY5Y cells assessed as increase in neutral red dye uptake at 1 uM preincubated with 1000 uM MPP+ for 30 mins followed by compound treatment for 24 hrs (reference value: 76.2 %). It is filed as functional. The settings on record: time 24.5 hrs.
The test system of series [14] is SH-SY5Y. The series can be described thus: Cytotoxicity against human SH-SY5Y cells assessed as decrease in resazurin dye at 10 uM incubated for 24 hrs relative to control. It is filed as toxicity, cell-based. Also noted: scale not given: the % may be the effect or the level left.
Series [15] relates to SH-SY5Y. The series can be described thus: Neuroprotective effect in Fe3+-induced cytotoxicity in human SH-SY5Y cells assessed as increase in neutral red dye uptake at 2.5 to 5 uM preincubated with 1000 uM FeNTA for 30 mins followed by compound treatment for 24 hrs. It is filed as functional, cell-based. As to conditions: dose 2.5-5 µM, time 24.5 hrs.
Series [16] has as its system SH-SY5Y. The series can be described thus: Cytotoxicity against human SH-SY5Y cells assessed as decrease in neutral red dye uptake at 25 uM incubated for 24 hrs relative to control. On the set-up: scale not given: the % may be the effect or the level left. The series is classed as toxicity, cell-based.
The test system of series [17] is SH-SY5Y. The experiment in a line: Neuroprotective effect in MPP+-induced cytotoxicity in human SH-SY5Y cells assessed as increase in neutral red dye uptake at 2.5 uM preincubated with 500 uM MPP+ for 30 mins followed by compound treatment for 24 hrs (reference value: 75 %). It is filed as functional. The settings on record: time 24.5 hrs.
For series [18], the system named is SH-SY5Y. The series can be described thus: Neuroprotective effect in MPP+-induced cytotoxicity in human SH-SY5Y cells assessed as increase in neutral red dye uptake at 5 uM preincubated with 500 uM MPP+ for 30 mins followed by compound treatment for 24 hrs (reference value: 81.1 %). It is filed as functional. The settings on record: time 24.5 hrs.
Series [19] deals with SH-SY5Y. The experiment in a line: Neuroprotective effect in MPP+-induced cytotoxicity in human SH-SY5Y cells assessed as increase in neutral red dye uptake at 1 uM preincubated with 500 uM MPP+ for 30 mins followed by compound treatment for 24 hrs (reference value: 75 %). The series is classed as functional. The settings on record: time 24.5 hrs.
Series [20] deals with SH-SY5Y. The experiment in a line: Neuroprotective effect in MPP+-induced cytotoxicity in human SH-SY5Y cells assessed as increase in neutral red dye uptake at 2.5 uM preincubated with 500 uM MPP+ for 30 mins followed by compound treatment for 24 hrs (reference value: 81.1 %). The series is classed as functional. The settings on record: time 24.5 hrs.
Series [21] deals with SH-SY5Y. The series can be described thus: Neuroprotective effect in MPP+-induced cytotoxicity in human SH-SY5Y cells assessed as increase in neutral red dye uptake at 1 uM preincubated with 500 uM MPP+ for 30 mins followed by compound treatment for 24 hrs (reference value: 81.1 %). It is filed as functional. The settings on record: time 24.5 hrs.
Series [22] relates to SH-SY5Y. The series can be described thus: Neuroprotective effect in Fe3+-induced cytotoxicity in human SH-SY5Y cells assessed as increase in neutral red dye uptake at 1 to 10 uM preincubated with 500 to 1000 uM FeNTA for 30 mins followed by compound treatment for 24 hrs. It is filed as functional, cell-based. As to conditions: dose 1-10 µM, time 24.5 hrs.
Series [23] deals with SH-SY5Y. The series can be described thus: Cytotoxicity against human SH-SY5Y cells assessed as decrease in resazurin dye upto 50 uM incubated for 24 hrs. It is filed as toxicity, cell-based.
For series [24], the system named is SH-SY5Y. The series can be described thus: Neuroprotective effect in MPP+-induced cytotoxicity in human SH-SY5Y cells assessed as increase in neutral red dye uptake at 1 uM preincubated with 1000 uM MPP+ for 30 mins followed by compound treatment for 24 hrs (reference value: 75.8 %). The series is classed as functional. As to conditions: time 24.5 hrs.
The subject of series [25] is SH-SY5Y. The series can be described thus: Neuroprotective effect in MPP+-induced cytotoxicity in human SH-SY5Y cells assessed as increase in neutral red dye uptake at 2.5 uM preincubated with 500 uM MPP+ for 30 mins followed by compound treatment for 24 hrs (reference value: 83.3 %). The series is classed as functional. The settings on record: time 24.5 hrs.
The test system of series [26] is SH-SY5Y. The series can be described thus: Neuroprotective effect in MPP+-induced cytotoxicity in human SH-SY5Y cells assessed as increase in neutral red dye uptake at 5 uM preincubated with 1000 uM MPP+ for 30 mins followed by compound treatment for 24 hrs (reference value: 75.8 %). It is filed as functional. The settings on record: time 24.5 hrs.
The test system of series [27] is SH-SY5Y. The experiment in a line: Neuroprotective effect in MPP+-induced cytotoxicity in human SH-SY5Y cells assessed as increase in neutral red dye uptake at 5 uM preincubated with 500 uM MPP+ for 30 mins followed by compound treatment for 24 hrs (reference value: 83.3 %). As to conditions: time 24.5 hrs. The series is classed as functional.
Series [28] relates to SH-SY5Y. The experiment in a line: Neuroprotective effect in MPP+-induced cytotoxicity in human SH-SY5Y cells assessed as increase in neutral red dye uptake at 2.5 uM preincubated with 1000 uM MPP+ for 30 mins followed by compound treatment for 24 hrs (reference value: 75.8 %). It is filed as functional. The settings on record: time 24.5 hrs.
Series [29] concerns SH-SY5Y. The series can be described thus: Neuroprotective effect in MPP+-induced cytotoxicity in human SH-SY5Y cells assessed as increase in neutral red dye uptake at 1 uM preincubated with 500 uM MPP+ for 30 mins followed by compound treatment for 24 hrs (reference value: 83.3 %). It is filed as functional. As to conditions: time 24.5 hrs.
Series [30] deals with SH-SY5Y. The series can be described thus: Neuroprotective effect in Fe3+-induced cytotoxicity in human SH-SY5Y cells assessed as increase in neutral red dye uptake at 1 uM preincubated with 500 uM FeNTA for 30 mins followed by compound treatment for 24 hrs (reference value: 81.4 %). It is filed as functional. As to conditions: time 24.5 hrs.

Structures are written as SMILES. Activity calls are given as the source filed them. The rule behind the calls is not given here.

With `O=[N+]([O-])c1cccc(-c2nc(-c3nnnn3Cc3ccccc3)cc3c2[nH]c2ccccc23)c1`, the Activity was 92.6% in series [1], “Non-Toxic” in [2] and “Non-Toxic” in series [4]. Also, the outcome in series [3] was inactive.

Take `Fc1ccc(-c2nc(-c3nnnn3Cc3ccccc3)cc3c2[nH]c2ccccc23)cc1`: the Activity is 48.5% in series [1]; 62.2% in series [5]; 83.2% in series [6]; 56.1% in series [7]; “Non-Toxic” in [8]; 83.4% in series [9]. Also, the Activity in series [10] was 83.6%; in [11], 108.2%; in series [12], 91.4%; in series [13] it was 84.8%; in series [14], 80%; in series [16], 70.5%. The result in [15] was Active.

Regarding `CN(C)c1ccc(-c2nc(-c3nnnn3Cc3ccccc3)cc3c2[nH]c2ccccc23)cc1`, the Activity is 83.6% in series [17]; 85.8% in series [18]; “Non-Toxic” in series [2]; 90.3% in series [19]; 80.5% in series [7]; 92.3% in [20]. For the same compound, the Activity in series [21] worked out at 97.8%. The outcome in series [22] was inactive.

For the compound `Clc1ccccc1-c1nc(-c2nnnn2Cc2ccccc2)cc2c1[nH]c1ccccc12`, the Activity result in series [2] is “Non-Toxic”; in series [7], 81.7%; in series [23], “Non-Toxic”; in series [16] it was 84%. Besides, in [3], the outcome was Active.

In the case of `c1ccc(Cn2nnnc2-c2cc3c([nH]c4ccccc43)c(-c3ccccc3)n2)cc1`, the Activity in series [1] is given as 59.3%; in series [24], 87.1%; in series [5], 74%; in series [25], 92.1%; in series [7] it was 65.9%; in series [8], “Non-Toxic”. In addition, the Activity in [26] came to 89.1%; in series [10], 85.6%; in series [27], 93.5%; in series [28], 84.6%; in [29] it was 91.4%; in [16], 81.3%. Further, in [30], the Activity is 87.6%.
